What was measured:
[1] = target: T1, HIV-1 integrase (wild-type IN) (Human immunodeficiency virus type 1 group M subtype B, UniProt P12497); experiment: HIV-1 integrase 3′-processing assay (32P-labeled 21-mer, gel); type: biochemical
Procedure, shortened: (§1)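 Wild-type IN at 200 nM preincubated with inhibitor 30 min at 30 °C in MnCl2 (7.5 mM), pH 7.2 MOPS buffer with 10% DMSO, then 20 nM 5′-32P-labeled 21-mer duplex added for 1 h. 19-mer and strand-transfer products resolved on denaturing 20% gels by phosphorimaging; IC50 from log concentration versus % inhibition.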

[2] = target: T1, HIV-1 integrase (wild-type IN); experiment: HIV-1 integrase strand transfer assay (32P-labeled 21-mer, gel); type: biochemical
Procedure, shortened: as §1

[3] = Table 54, read-out: IN inhibition activity 3′-processing
[4] = Table 54, read-out: IN inhibition activity Strand transfer
[5] = Table 53, structurally diverse compounds, read-out: IN inhibition activity 3′-processing
[6] = Table 53, structurally diverse compounds, read-out: IN inhibition activity Strand transfer
[7] = unit inferred, read-out: IN inhibition activity 3′-processing
[8] = unit inferred, read-out: IN inhibition activity Strand transfer
[9] = wild-type IN 200 nM, 7.5 mM MnCl2, read-out: Inhibition of IN Catalytic Activities IC50 (μM) 3′-processing
[10] = wild-type IN 200 nM, 7.5 mM MnCl2, read-out: Inhibition of IN Catalytic Activities IC50 (μM) Strand Transfer
[11] = unit inferred, read-out: HIV-1 IN Inhibitory Activities 3′-processing
[12] = unit inferred, read-out: HIV-1 IN Inhibitory Activities Strand transfer

Row | SMILES | IC50 [1, 9] | IC50 [2, 10] | other results
1 | CCOc1cc(/C=C2\C(=O)N(c3nnn[nH]3)N=C2C)ccc1OC [GLD12A3] | – | – | IC50 [1, 3]: 75 ± 28 µM; IC50 [2, 4]: 59 ± 13 µM
2 | CCOc1cc(/C=C2\C(=O)N(c3nnn[nH]3)N=C2C)cc(Cl)c1OCC [GLD12A4] | – | – | IC50 [1, 3]: 7 ± 6 µM; IC50 [2, 4]: 4 ± 2 µM
3 | CC1=NN(c2nnn[nH]2)C(=O)/C1=C\c1cc(Cl)c(O)c(Cl)c1 [GLD12A5] | – | – | IC50 [1, 3]: 11 ± 3 µM; IC50 [2, 4]: 13 ± 11 µM
4 | COc1ccc(/C=C2\C(=O)N(c3nnn[nH]3)N=C2C)cc1OCc1ccccc1Cl [GLD12] | – | – | IC50 [1, 3]: 14 ± 7 µM; IC50 [2, 4]: 5 ± 3 µM
5 | CCOc1cc(CNc2nn[nH]n2)cc(Cl)c1OCc1ccc(Cl)cc1 [GLD19] | – | – | IC50 [1, 5]: > 100 µM; IC50 [2, 6]: 52 ± 8 µM
6 | O=C(O)C(O)C(O)c1nc2cc3ccccc3cc2[nH]1 (stereo not shown) [GLD20] | – | – | IC50 [1, 5]: > 100 µM; IC50 [2, 6]: 46 ± 12 µM
7 | O=C(Nc1ccccc1C(=O)O)c1cccc(S(=O)(=O)Nc2ccc(Oc3ccccc3)cc2)c1 [GLD25] | – | – | IC50 [1, 5]: 42 ± 10 µM; IC50 [2, 6]: 18 ± 3 µM
8 | Cc1ccc2nc(-c3ccc(NC(=O)/C=C/C(=O)O)cc3)sc2c1 [GLD28] | – | – | IC50 [1, 5]: 48 ± 19 µM; IC50 [2, 6]: 23 ± 4 µM
9 | O=C(O)CN1C(=O)/C(=C2\SC(=S)N(C(Cc3ccccc3)C(=O)O)C2=O)c2ccccc21 (stereo not shown) [GLD31] | – | – | IC50 [1, 5]: 92 ± 17 µM; IC50 [2, 6]: 66 ± 17 µM
10 | O=C(O)C1CCCCC1C(=O)Nc1ccc(Oc2cccc3ccccc23)cc1 (stereo not shown) [GLD32] | – | – | IC50 [1, 5]: > 100 µM; IC50 [2, 6]: 34 ± 7 µM
11 | COc1ccc(-c2nnc(SCC(=O)N/N=C/c3ccccc3C(=O)O)n2-c2ccccc2)cc1OC [GLD38] | – | – | IC50 [1, 7]: > 100 µM; IC50 [2, 8]: > 100 µM
12 | O=C(CSc1nnc(-c2ccc(Cl)cc2)n1-c1ccccc1)N/N=C/c1ccccc1C(=O)O [GLD39] | – | – | IC50 [1, 7]: > 100 µM; IC50 [2, 8]: > 100 µM
13 | Nc1c(C(=O)Nc2ccc(Cl)c(Cl)c2)sc2[nH]c(=O)c(C(=O)O)cc12 [GLD44] | – | – | IC50 [1, 7]: 14 ± 6 µM; IC50 [2, 8]: 5 ± 4 µM
14 | COc1cccc(NC(=O)c2sc3[nH]c(=O)c(C(=O)O)cc3c2N)c1 [GLD45] | – | – | IC50 [1, 7]: 82 ± 13 µM; IC50 [2, 8]: 43 ± 12 µM
15 | Cc1ccc(C(=O)O)cc1NC(=O)CSc1nc2ccccc2s1 [GLD59] | – | – | IC50 [1, 5]: 63 ± 22 µM; IC50 [2, 6]: 17 ± 2 µM
16 | CSc1ccc(/C=N/NC(=O)CSc2nnc(-c3ccc(Cl)cc3)n2-c2ccccc2)cc1 [HD39] | – | – | IC50 [1, 7]: > 100 µM; IC50 [2, 8]: > 100 µM
17 | O=C(Nc1ncccc1O)c1c(O)c2cccc3c2n(c1=O)CCC3 [LM11] | 56 µM | 15 µM | –
18 | COc1ccc(-c2nnc(SCC(=O)N/N=C/c3cccc(Oc4ccccc4)c3)n2-c2ccccc2)cc1OC [LX6] | – | – | IC50 [1, 7]: > 100 µM; IC50 [2, 8]: > 100 µM
19 | O=C(CSc1nnc(-c2ccc(Cl)cc2)n1-c1ccccc1)N/N=C/c1cccc(Oc2ccccc2)c1 [LX7] | – | – | IC50 [1, 7]: > 100 µM; IC50 [2, 8]: > 100 µM
20 | COc1ccc(O)c(/C=N/NC(=O)CSc2nnc(-c3ccncc3)n2-c2ccccc2)c1 [MC41] | – | – | IC50 [1, 7]: > 100 µM; IC50 [2, 8]: > 100 µM
21 | COc1ccc(C2C(C(=O)c3ccco3)=C(O)C(=O)N2CCN2CCOCC2)c(OC)c1 (stereo not shown) [MMC8] | – | – | IC50 [1, 11]: > 1000 µM; IC50 [2, 12]: 395 µM
22 | CCOc1ccc2c(c1)C(=C1SC(C(=O)OC)=C(C(=O)OC)S1)C(=S)C(C)(C)N2C(=O)c1ccccc1F [OT2] | > 100 µM | 95 ± 9 µM | –
23 | COc1cc(/C=C2/SC(=S)N(CC(=O)O)C2=O)ccc1OCc1ccccc1 [OT3] | > 100 µM | 92 ± 7 µM | –

Row | SMILES | IC50 [1, 9] | IC50 [2, 10] | other results
24 | COc1cc(/C=C2/SC(=S)N(CC(=O)O)C2=O)ccc1OCc1ccccc1Cl [OT4] | 48 ± 7 µM | 22 ± 4 µM | –
25 | COc1ccc(/C=C2/SC(=S)N(CC(=O)O)C2=O)cc1OCc1ccccc1 [OT5] | > 100 µM | 54 ± 17 µM | –
26 | COc1ccc(/C=C2/SC(=S)N(CC(=O)O)C2=O)cc1CCc1ccc(Cl)cc1Cl [OT6] | 17 ± 4 µM | 13 ± 7 µM | –
27 | O=C(N/N=C/c1ccc(-c2ccc(Cl)c(Cl)c2)o1)c1ccccc1O [OT8] | 31 ± 16 µM | 14 ± 4 µM | –
28 | COc1cc(/C=C2/SC(=S)N(CC(=O)O)C2=O)ccc1OC(=O)c1ccc(F)cc1 [OT9] | > 100 µM | 97 ± 5 µM | –
29 | COc1ccc(/C=N/NC(=O)CSc2nnc(-c3ccccc3)n2-c2ccccc2)c(C(=O)O)c1OC [OT10] | – | – | IC50 [1, 7]: > 100 µM; IC50 [2, 8]: > 100 µM
30 | COc1cc(/C=C2/SC(=S)N(CCC(=O)O)C2=O)ccc1OC(=O)c1ccccc1 [OT17] | 42 ± 20 µM | 27 ± 11 µM | –
31 | Cc1ccc(S(=O)(=O)N(CC(=O)Nc2ccccc2C(=O)O)c2cccc(Cl)c2)cc1 [OT24] | 98 ± 5 µM | 71 ± 23 µM | –
32 | CCOc1ccc(N(CC(=O)Nc2ccccc2C(=O)O)S(=O)(=O)c2ccc(Cl)cc2)cc1 [OT27] | 69 ± 15 µM | 47 ± 22 µM | –
33 | CCCc1cc2c(-c3ccccc3)cc(=O)oc2cc1OCc1ccc(C(=O)O)o1 [OT32] | 72 ± 8 µM | 57 ± 22 µM | –
34 | N#Cc1c(-c2ccc(F)cc2)cc(C2CC2)nc1SCCN1C(=O)c2ccccc2C1=O [OT33] | > 100 µM | 95 ± 11 µM | –
35 | COCCN1C(=O)/C(=C\c2ccc(OCc3ccc(C(=O)O)cc3)c(OC)c2)SC1=S [OT35] | 41 ± 11 µM | 38 ± 16 µM | –
36 | COc1ccc(/C=C2/SC(=S)N(CC(=O)O)C2=O)cc1OCc1ccccc1F [OT37] | > 100 µM | 79 ± 8 µM | –
37 | O=C(CSc1nc2scc(-c3ccco3)c2c(=O)n1-c1ccccc1)NCc1ccco1 [OT51] | 36 ± 29 µM | 14 ± 4 µM | –
38 | O=C(Nc1cc(C(=O)Nc2ccccc2C(=O)O)cc(C(=O)Nc2ccccc2C(=O)O)c1)c1ccccc1 [ROM1] | – | – | IC50 [1, 11]: 78 µM; IC50 [2, 12]: 20 µM
39 | CCn1cc(C(=O)O)c(=O)c2cc(F)c(NNC(=O)C3CCCCC3)cc21 [ROM3A1] | > 100 µM | > 100 µM | –
40 | CCn1cc(C(=O)NN)c(=O)c2cc(F)c(N3CCCCCC3)cc21 [ROM3A2] | 94 µM | 98 µM | –
41 | CCn1cc(C(=O)O)c(=O)c2cc(F)c(N3CCN(C(=O)c4cccc(C)c4)CC3)cc21 [ROM3A3] | > 100 µM | > 100 µM | –
42 | CCn1cc(C(=O)O)c(=O)c2cnc(N3CCN(C(=S)NC(=O)c4ccc(F)c(F)c4)CC3)nc21 [ROM3A4] | 64 µM | 59 µM | –
43 | NC(=S)N1CCN(c2c(F)c(N)c3c(=O)c(C(=O)O)cn(C4CC4)c3c2F)CC1 [ROM3A5] | > 100 µM | > 100 µM | –
44 | CCn1cc(C(=O)O)c(=O)c2cc(F)c(N3CCN(C(=S)S)CC3)cc21 [ROM3A6] | > 100 µM | > 100 µM | –
45 | CCn1cc(C(=O)O)c(=O)c2c(N)c(F)c(N3CCNCC3)c(F)c21 [ROM3A7] | > 100 µM | 95 µM | –
46 | CCn1cc(C(=O)O)c(=O)c2cc(F)c(N3CCN(C(=S)NC(=O)C45CC6CC(CC(C6)C4)C5)CC3)cc21 [ROM3A8] | 78 µM | 74 µM | –

Row | SMILES | IC50 [1, 9] | IC50 [2, 10] | other results
47 | O=C(NC(=S)N1CCN(c2cc3c(cc2F)c(=O)c(C(=O)O)cn3C2CC2)CC1)c1ccc(Cl)cc1 [ROM3A9] | 80 µM | 53 µM | –
48 | O=C(NC1CC1)c1c[nH]c2ccc(S(=O)(=O)Nc3cccc(C(F)(F)F)c3)cc2c1=O [ROM3A10] | 93 µM | 92 µM | –
49 | O=C(NCc1cccs1)c1c[nH]c2ccc(S(=O)(=O)Nc3ccc4c(c3)OCCO4)cc2c1=O [ROM3A11] | 91 µM | 90 µM | –
50 | O=C(O)c1c[nH]c2c(F)c(F)c(F)c(NCc3ccccc3)c2c1=O [ROM3] | > 12 µM | 12 µM | –
51 | Oc1cccc2ccc(/C=N/N=C/c3ccc4cccc(O)c4n3)nc12 [RT3] | 45 µM | 69 µM | –
52 | O=C(O)CCN1C(=O)/C(=C\c2ccc(-c3cccc(Cl)c3)o2)SC1=S [RT23] | > 100 µM | 21 µM | –
53 | Oc1cccc2ccc(/C=C/c3ccc(-c4cccc(Cl)c4)o3)nc12 [RT29] | 30 µM | 70 µM | –
54 | Cc1ccc2ccc(C(Nc3ccccn3)c3ccc(F)cc3)c(O)c2n1 (stereo not shown) [RT30] | > 100 µM | > 100 µM | –
55 | Cc1cc([N+](=O)[O-])ccc1-c1ccc(/C=C/c2ccc3cccc(O)c3n2)o1 [RT31] | 57 µM | > 100 µM | –
56 | CCOc1cc(/C=C2/C(=N)N3N=C(C(C)(F)F)SC3=NC2=O)ccc1OCc1ccc(F)cc1 [RT35] | 90 µM | 19 µM | –
57 | CC1=NN2C(=N)/C(=C/c3ccc(-c4ccccc4Cl)o3)C(=O)N=C2S1 [RT42] | > 100 µM | > 100 µM | –
58 | O=C(N/N=C/c1ccc(-c2ccc(O)c(C(=O)O)c2)o1)c1cccnc1 [SA1] | 59 µM | 9 µM | IC50 [1, 7]: 59 ± 1 µM; IC50 [2, 8]: 9 ± 5 µM
59 | CCn1cc(C(=O)O)c(=O)c2cc(F)c(N3CCN(S(=O)(=O)c4ccc(NC(C)=O)cc4)CC3)cc21 [SR9] | > 100 µM | > 100 µM | –
60 | O=c1cc(-c2ccccc2)c2ccc(O)c(O)c2o1 [SR44] | 32 µM | 16 µM | –
61 | CCn1c(=O)c(C(=O)Nc2cc(Cl)ccc2OC)c(O)c2ccccc21 [XR5] | 74 µM | 19 µM | –
62 | CCCCCn1c(=O)c(C(=O)Nc2cc([N+](=O)[O-])ccc2O)c(O)c2ccccc21 [XR6] | 9 µM | 9 µM | –
63 | C=CCn1c(=O)c(C(=O)Nc2ccccc2S(N)(=O)=O)c(O)c2ccccc21 [XR7] | 83 µM | 45 µM | –
64 | Cn1c(=O)c(C(=O)Nc2ccccc2S(N)(=O)=O)c(O)c2ccccc21 [XR8] | 50 µM | 39 µM | –
65 | CCn1c(=O)c(C(=O)Nc2ccccc2O)c(O)c2ccccc21 [XR10] | 72 µM | 32 µM | –
66 | Cn1c(=O)c(C(=O)Nc2ccccc2C(F)(F)F)c(O)c2ccccc21 [XR12] | 81 µM | 28 µM | –
67 | CCCCCn1c(=O)c(C(=O)Nc2ccccc2S(N)(=O)=O)c(O)c2ccccc21 [XR13] | 11 µM | 13 µM | –

Source: patent publication US8183236B2, “Compounds with HIV-1 integrase inhibitory activity and use thereof as anti-HIV/AIDS therapeutics” (University of Southern California, priority 2007, dated 2012)
